# PubChem BioAssay (NCI)
#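 1) Cells in 96-well plates. 2) Compound, 48 h, 5 concentrations. 3) Linear interpolation between surrounding doses. 4) Unreached endpoint = highest concentration. At the TGI there is no net growth.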
# Key:
# Test in all cases: growth of human tumour cells (NCI), 48 h
# [1] = test system: 786-0 renal
# [2] = test system: A498 renal
# [3] = test system: A549 NSCLC
# [4] = test system: ACHN renal
# [5] = test system: CAKI-1 renal
# [6] = test system: CCRF-CEM leukemia
# [7] = test system: COLO 205 colon
# [8] = test system: DLD-1 colon
# [9] = test system: DMS 114 small cell lung
# [10] = test system: DMS 273 small cell lung
# [11] = test system: EKVX NSCLC
# [12] = test system: HCC-2998 colon
# [13] = test system: HCT-116 colon
# [14] = test system: HCT-15 colon
# [15] = test system: HL-60(TB) leukemia
# [16] = test system: HOP-18 NSCLC
# [17] = test system: HOP-62 NSCLC
# [18] = test system: HOP-92 NSCLC
# [19] = test system: HT29 colon
# [20] = test system: IGROV1 ovarian
# [21] = test system: K-562 leukemia
# [22] = test system: KM12 colon
# [23] = test system: KM20L2 colon
# [24] = test system: LOX IMVI melanoma
# [25] = test system: LXFL 529 NSCLC
# [26] = test system: M14 melanoma
# [27] = test system: M19-MEL melanoma
# [28] = test system: MALME-3M melanoma
# [29] = test system: MOLT-4 leukemia
# [30] = test system: NCI-H226 lung
# [31] = test system: NCI-H23 lung
# [32] = test system: NCI-H460 lung
# [33] = test system: NCI-H522 lung
# [34] = test system: OVCAR-3 ovarian
# [35] = test system: OVCAR-4 ovarian
# [36] = test system: OVCAR-5 ovarian
# [37] = test system: OVCAR-8 ovarian
# [38] = test system: RXF 393 renal
# [39] = test system: SF-268 CNS
# [40] = test system: SF-295 CNS
# [41] = test system: SF-539 CNS
# [42] = test system: SK-MEL-2 melanoma
# [43] = test system: SK-MEL-28 melanoma
# [44] = test system: SK-MEL-5 melanoma
# [45] = test system: SK-OV-3 ovarian
# [46] = test system: SN12C renal
# [47] = test system: SNB-19 CNS
# [48] = test system: SNB-75 CNS
# [49] = test system: SNB-78 CNS
# [50] = test system: SR leukemia
# [51] = test system: SW-620 colon
# [52] = test system: TK-10 renal
# [53] = test system: U251 CNS
# [54] = test system: UACC-257 melanoma
# [55] = test system: UACC-62 melanoma
# [56] = test system: UO-31 renal
# [57] = test system: XF 498 CNS
# [58] = test system: RPMI-8226 leukemia
compound,measurement,setting,value
CC(=O)OC(OC(C)=O)c1ncccc1C(=O)OC(C)C,TGI,[1],> 100 µM
same,TGI,[2],> 100 µM
same,TGI,[3],> 100 µM
same,TGI,[4],> 100 µM
same,TGI,[5],> 100 µM
same,TGI,[6],49.1 µM
same,TGI,[7],> 100 µM
same,TGI,[8],> 100 µM
same,TGI,[9],> 100 µM
same,TGI,[10],> 100 µM
same,TGI,[11],> 100 µM
same,TGI,[12],> 100 µM
same,TGI,[13],> 100 µM
same,TGI,[14],> 100 µM
same,TGI,[15],28.9 µM
same,TGI,[16],> 100 µM
same,TGI,[17],> 100 µM
same,TGI,[18],> 100 µM
same,TGI,[19],> 100 µM
same,TGI,[20],> 100 µM
same,TGI,[21],> 100 µM
same,TGI,[22],> 100 µM
same,TGI,[23],> 100 µM
same,TGI,[24],> 100 µM
same,TGI,[25],> 100 µM
same,TGI,[26],> 100 µM
same,TGI,[27],> 100 µM
same,TGI,[28],> 100 µM
same,TGI,[29],> 100 µM
same,TGI,[30],> 100 µM
same,TGI,[31],> 100 µM
same,TGI,[32],> 100 µM
same,TGI,[33],> 100 µM
same,TGI,[34],> 100 µM
same,TGI,[35],> 100 µM
same,TGI,[36],> 100 µM
same,TGI,[37],> 100 µM
same,TGI,[38],> 100 µM
same,TGI,[39],> 100 µM
same,TGI,[40],> 100 µM
same,TGI,[41],> 100 µM
same,TGI,[42],> 100 µM
same,TGI,[43],> 100 µM
same,TGI,[44],> 100 µM
same,TGI,[45],> 100 µM
same,TGI,[46],> 100 µM
same,TGI,[47],> 100 µM
same,TGI,[48],> 100 µM
same,TGI,[49],> 100 µM
same,TGI,[50],> 100 µM
same,TGI,[51],> 100 µM
same,TGI,[52],> 100 µM
same,TGI,[53],> 100 µM
same,TGI,[54],> 100 µM
same,TGI,[55],> 100 µM
same,TGI,[56],> 100 µM
same,TGI,[57],> 100 µM
Cc1c(Cl)ccc2c1NC(=O)C2(O)CC(=O)c1cccc2ccccc12 (centres undefined),TGI,[1],> 100 µM
same,TGI,[2],> 100 µM
same,TGI,[3],> 100 µM
same,TGI,[4],> 100 µM
same,TGI,[5],> 100 µM
same,TGI,[6],> 100 µM
same,TGI,[7],> 100 µM
same,TGI,[8],> 100 µM
same,TGI,[9],55.8 µM
same,TGI,[10],> 100 µM
same,TGI,[11],> 100 µM
same,TGI,[12],> 100 µM
same,TGI,[13],> 100 µM
same,TGI,[14],> 100 µM
same,TGI,[15],42.3 µM
same,TGI,[16],> 100 µM
same,TGI,[17],> 100 µM
same,TGI,[19],> 100 µM
same,TGI,[20],> 100 µM
same,TGI,[21],> 100 µM
same,TGI,[22],> 100 µM
same,TGI,[23],> 100 µM
same,TGI,[24],> 100 µM
same,TGI,[25],> 100 µM
same,TGI,[26],> 100 µM
same,TGI,[27],37.6 µM
same,TGI,[28],> 100 µM
same,TGI,[29],> 100 µM
same,TGI,[30],> 100 µM
same,TGI,[31],> 100 µM
same,TGI,[32],> 100 µM
same,TGI,[33],> 100 µM
same,TGI,[34],> 100 µM
same,TGI,[35],71.3 µM
same,TGI,[36],> 100 µM
same,TGI,[37],> 100 µM
same,TGI,[58],> 100 µM
same,TGI,[38],> 100 µM
same,TGI,[39],> 100 µM
same,TGI,[40],> 100 µM
same,TGI,[41],> 100 µM
same,TGI,[42],> 100 µM
same,TGI,[43],> 100 µM
same,TGI,[44],> 100 µM
same,TGI,[45],> 100 µM
same,TGI,[46],> 100 µM
same,TGI,[47],> 100 µM
same,TGI,[48],> 100 µM
same,TGI,[49],> 100 µM
same,TGI,[50],63.1 µM
same,TGI,[51],> 100 µM
same,TGI,[52],> 100 µM
same,TGI,[53],> 100 µM
same,TGI,[54],> 100 µM
same,TGI,[55],> 100 µM
same,TGI,[56],> 100 µM
same,TGI,[57],> 100 µM
